Tests used:
[1] = tested on: anti-CD19 CAR T cells; assay: Long-term (12 days) stimulation with anti-idiotype antibody beads: expansion and survival; format: cell-based, human; settings: anti-ID antibody beads
Description: CD4+ and CD8+ T cells were isolated by immunoaffinity-based enrichment from leukapheresis samples from human donor subjects. At day 1, isolated CD4+ and CD8+ T cells were mixed 1:1 and stimulated with an anti-CD3/anti-CD28 oligomeric stimulatory reagent generated as described in Example 1 in serum-free media supplemented with recombinant IL-2 (100 IU/mL), recombinant IL-7 (600 IU/mL), and recombinant IL-15 (100 IU/mL) with or without 1 μM of 2-(3-hydroxyphenyl)-9-(2-isopropylphenyl)-8-oxo-8,9-dihydro-7H-purine-6-carboxamide (Compound 63). The T cells cultured with our without Compound 63 were incubated overnight (approximately 24 hr) at 37° C., and were then transduced in serum-free culture media with our without Compound 63 ([…]) with a lentiviral vector encoding an anti-CD19 CAR. The CAR contained an scFv antigen-binding domain specific for CD19 (derived from FMC63), a CD28 transmembrane region, a 4-1BB costimulatory signaling region, and a CD3-zeta derived intracellular signaling domain. […]
To further assess the functional activity of the cells, the generated T cell compositions were stimulated long-term over 12 days with beads conjugated with an anti-idiotype (ID) antibody against the anti-CD19 CAR, and expansion and survival of the cells were monitored (FIG. 7F, left panel) and total expansion metric calculated by area under the curve (FIG. 7F, right panel).

[2] = tested on: CD4+ and CD8+ T cells; assay: Caspase, CD27/CCR7 phenotype and intracellular cytokines of thawed engineered T cells; format: cell-based, human
Description: CD4+ and CD8+ T cells were isolated by immunoaffinity-based enrichment from leukapheresis samples from human donor subjects. At day 1, isolated CD4+ and CD8+ T cells were mixed 1:1 and stimulated with an anti-CD3/anti-CD28 oligomeric stimulatory reagent generated as described in Example 1 in serum-free media supplemented with recombinant IL-2 (100 IU/mL), recombinant IL-7 (600 IU/mL), and recombinant IL-15 (100 IU/mL) with or without 1 μM of 2-(3-hydroxyphenyl)-9-(2-isopropylphenyl)-8-oxo-8,9-dihydro-7H-purine-6-carboxamide (Compound 63). The T cells cultured with our without Compound 63 were incubated overnight (approximately 24 hr) at 37° C., and were then transduced in serum-free culture media with our without Compound 63 ([…]) with a lentiviral vector encoding an anti-CD19 CAR. The CAR contained an scFv antigen-binding domain specific for CD19 (derived from FMC63), a CD28 transmembrane region, a 4-1BB costimulatory signaling region, and a CD3-zeta derived intracellular signaling domain. Following transduction, the cells were incubated in serum free media without recombinant cytokines (basal media) and with or without Compound 63 (1 mM) and allowed to incubate at about 37.0° C. in an incubator for up to 96 hours after initiation of the stimulation with the anti-CD3/anti-CD28 oligomeric stimulatory reagent (until day 5 of the process). […] Following incubation CD4+ and CD8+ T cells from each donor were harvested, formulated, and cryofrozen.
Thawed cells generated by the process described were assessed for a marker of apoptosis (e.g., percentage of caspase positive CAR-T cells), phenotypic profile, and ability to produce intracellular cytokines following stimulation with PMA/Ionomycin and a Golgi Inhibitor. […] Thawed cells also were stained for surface expression of CD27 and CCR7 by flow cytometry.

[3] = tested on: mTOR; assay: Intracellular S6 phosphorylation (marker of mTOR inhibition) in engineered T cells; format: cell-based, human; settings: live CD8+ T cells; 1 μM at stimulation (1 mM printed for later steps)
Description: (§1) CD4+ and CD8+ T cells were isolated by immunoaffinity-based enrichment from leukapheresis samples from human donor subjects. […] The T cells cultured with our without Compound 63 were incubated overnight (approximately 24 hr) at 37° C., and were then transduced in serum-free culture media with our without Compound 63 ([…]) with a lentiviral vector encoding an anti-CD19 CAR. […] Following transduction, the cells were incubated in serum free media without recombinant cytokines (basal media) and with or without Compound 63 (1 mM) and allowed to incubate at about 37.0° C. in an incubator for up to 96 hours after initiation of the stimulation with the anti-CD3/anti-CD28 oligomeric stimulatory reagent (until day 5 of the process). […] The cryofrozen engineered CD4+ and CD8+ T cells were thawed, and T cells were assessed for intracellular S6 phosphorylation, a ribosomal protein and marker of mTOR inhibition, and co-stained for surface expression of CD4 or CD8 and for CCR7 and CD45RA as markers of memory subsets. pS6 expression in live CD8+ T cells by memory subsets was shown by the expression of CCR7 and CD45RA as shown in FIG. 6A. As shown, incubation with Compound 63 decreased the mean fluorescence intensity of stimulated memory T cell subsets, […], indicating an inhibition of mTOR, while having no significant effect on the percentage or total number of viable cells over time.

[4] = tested on: CD4+ and CD8+ T cells; assay: Viability and live cell count of engineered T cell composition; format: cell-based, human; settings: generated composition; produced with versus without compound
Description: as §1

[5] = target: Strep-Tactin® (mutein streptavidin, SEQ ID NO: 4) (Streptomyces avidinii, UniProt P22629, E68V/S69T/V71R); settings: general statement of the description, no experiment of the applicant; read-out: binding affinity KD for binding to Strep-Tactin®; cited from earlier work
Strep-Tactin® (mutein streptavidin, SEQ ID NO: 4), sequence (P22629 other isoform, or with tags, fused parts or gaps E68V/S69T/V71R): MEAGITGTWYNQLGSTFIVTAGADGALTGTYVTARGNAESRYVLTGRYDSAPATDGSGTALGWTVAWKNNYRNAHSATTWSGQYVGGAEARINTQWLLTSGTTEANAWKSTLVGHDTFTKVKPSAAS

Molecule | function (expansion and survival) after long-term CAR-specific stimulation [1] | phenotypic subset profile by CD27 and/or CCR7 expression ([2]; CD8+ and CD4+ T cells) | level of intracellular cytokines IL2, IFNg, or TNF ([2]; after PMA/Ionomycin and Golgi inhibitor, CD8+ and CD4+ T cells) | intracellular caspase expression ([2]; thawed CAR-T cells, with versus without compound) | pS6 mean fluorescence intensity in memory T cell subsets (Temra, Tem, Tcm) [3] | percent viable cells [4] | total live cells [4] | Kd [5] [nM]
CC(C)c1ccccc1-n1c(=O)[nH]c2c(C(N)=O)nc(-c3cccc(O)c3)nc21 [Compound 63, 2-(3-hydroxyphenyl)-9-(2-isopropylphenyl)-8-oxo-8,9-dihydro-7H-purine-6-carboxamide] | improved function | did not substantially alter | substantially improved | less | decreased | did not impact | did not impact | –
WSHPQFEK [Strep-Tag® II] | – | – | – | – | – | – | – | ~1000

From patent US12522660B2, “Methods for selection and stimulation of cells and apparatus for same” (C3S2 GMBH, priority 2018, dated 2026)
